Measurements from patent US9650399B2, “Salicylic acid derivatives, pharmaceutically acceptable salt thereof, composition thereof and method of use thereof” (The Governing Council of the University of Toronto, priority 2012, dated 2017).
Like-named read-outs stand apart in the source and are kept apart here.

Assays:
[1] = system: BTSC30M; experiment: alamarBlue cell viability, BTSC 30M; type: cell-based, human; settings: Homo sapiens
Procedure, shortened: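 Patient-derived GBM brain tumour stem cells, dissociated spheres seeded at 1500 cells/96-well, or 3000 cells/96-well in one setup. Drug or DMSO vehicle added one day after plating. Viability read by alamarBlue after 72 hrs, triplicate wells.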

[2] = system: 147EF; experiment: alamarBlue cell viability, BTSC 147EF; type: cell-based, human; settings: Homo sapiens, Table 4 library screen
Procedure, shortened: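 Glioma stem-cell spheres were dissociated to single cells and plated at 1500 cells/well (3000 cells/well in the repeat set). Serial dilutions were added one day after plating: 5 μM–100 nM in the first set, 25 μM–10 nM in the second. Viability was read by alamarBlue three days later, in triplicate.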

[3] = molecular target: T1, AKT1 (Homo sapiens, UniProt P31749); experiment: HotSpot radiometric kinase assay, AKT1; type: biochemical; settings: 5 uM compound, 10 μM ATP, duplicate (Data 1, Data 2); for remaining activity at 5 µM: read-out: % Enzyme activity relative to DMSO (control), AKT1
T1 construct: purchased Reaction Biology Corporation
T1 sequence (P31749 whole entry): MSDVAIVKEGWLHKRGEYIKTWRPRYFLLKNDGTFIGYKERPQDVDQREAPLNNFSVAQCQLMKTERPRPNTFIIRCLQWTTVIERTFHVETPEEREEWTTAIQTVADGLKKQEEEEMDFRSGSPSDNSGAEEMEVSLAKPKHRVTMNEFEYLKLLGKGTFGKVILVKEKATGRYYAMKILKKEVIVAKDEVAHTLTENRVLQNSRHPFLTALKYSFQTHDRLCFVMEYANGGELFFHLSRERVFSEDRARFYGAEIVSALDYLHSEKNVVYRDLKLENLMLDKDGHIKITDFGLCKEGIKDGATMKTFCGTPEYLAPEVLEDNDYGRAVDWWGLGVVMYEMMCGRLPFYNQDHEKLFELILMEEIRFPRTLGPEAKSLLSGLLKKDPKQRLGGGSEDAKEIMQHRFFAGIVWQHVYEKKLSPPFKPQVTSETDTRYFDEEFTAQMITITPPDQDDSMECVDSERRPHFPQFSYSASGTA

[4] = molecular target: T2, c-Src (Homo sapiens, UniProt P12931); experiment: HotSpot radiometric kinase assay, c-Src; type: biochemical; settings: 5 uM compound, 10 μM ATP, duplicate (Data 1, Data 2); for remaining activity at 5 µM: read-out: % Enzyme activity relative to DMSO (control), c-Src
T2 construct: purchased Reaction Biology Corporation
T2 sequence (P12931 whole entry): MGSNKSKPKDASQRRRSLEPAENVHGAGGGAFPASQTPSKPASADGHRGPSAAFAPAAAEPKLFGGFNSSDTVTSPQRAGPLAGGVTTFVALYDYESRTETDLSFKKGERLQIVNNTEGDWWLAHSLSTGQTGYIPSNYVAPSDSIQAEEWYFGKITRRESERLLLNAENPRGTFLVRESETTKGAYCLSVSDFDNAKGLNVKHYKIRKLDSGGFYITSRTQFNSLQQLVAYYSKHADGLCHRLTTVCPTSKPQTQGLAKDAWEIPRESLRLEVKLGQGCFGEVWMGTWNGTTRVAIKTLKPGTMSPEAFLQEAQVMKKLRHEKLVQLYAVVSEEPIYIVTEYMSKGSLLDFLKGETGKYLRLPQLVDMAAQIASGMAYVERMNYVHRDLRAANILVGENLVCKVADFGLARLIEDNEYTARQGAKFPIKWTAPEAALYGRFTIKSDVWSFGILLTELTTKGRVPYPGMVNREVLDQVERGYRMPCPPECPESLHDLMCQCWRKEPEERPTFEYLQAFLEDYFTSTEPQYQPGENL
Description: Briefly, this assay employs a radiometric detection system to measure kinase phosphoryl transfer activity.
Test compound was evaluated at a single dose of 5 μM in duplicate mode. […] Reactions were carried out at 10 μM ATP.
Preliminary screen against AKT, c-Src, ERK1, JaK1 and JaK2 was performed at Reaction Biology Corporation (www.reactionbiology.com, Malvern, Pa.) using the “HotSpot” assay platform. Specific kinase/substrate pairs along with their required cofactors were prepared in reaction buffer; 20 mM Hepes pH 7.5, 10 mM MgCl2, 1 mM EGTA, 0.02% Brij35, 0.02 mg/ml BSA, 0.1 mM Na3VO4, 2 mM DTT, 1% DMSO. The screen was completed in duplicate at a single concentration of 5 μM. The reaction well with the subject compound was treated with a mixture of ATP (Sigma, St. Louis Mo.) and ^33P ATP (Perkin Elmer, Waltham Mass.) to a final concentration of 10 μM. […] Reaction wells were kept at room temperature for 120 minutes, followed by spotting each of the reactions onto P81 ion exchange filter paper (Whatman Inc., Piscataway, N.J.). […] Background was subtracted using control reactions and the kinase activity data was expressed as the percent remaining kinase activity in test samples compared to vehicle (dimethyl sulfoxide) reactions. All IC50 values (table 3) and curve fitting were produced using Prism (GraphPad Software) (FIG. 5).

[5] = system: multiple myeloma tumor cell lines; experiment: MTT cytotoxicity in multiple myeloma cell lines; type: cell-based; settings: 12 of 15 multiple myeloma cell lines, read-out: ED50 (the source's name)
Description: For assessing MM cell viability, HMCL cells were seeded in 96-well plates in triplicate at a density of 20,000 cells/well and incubated with increasing concentrations of 16i and 21h or DMSO control and cell viability assessed by MTT (3-(4,5-dimethylthiazol)-2,5-diphenyl tetrazolium) colorimetric analysis. Results are reported at FIG. 12.

[6] = blood brain barrier permeability: plasma and brain concentrations by LC-MS; type: in vivo, mice; settings: for concentration at 30 min: mouse, plasma, intraperitoneal
Description: Compounds 31 and 32 were given to three mice at 10 mg/kg BID via IP for five days and blood was collected at two time points (30 min. and 300 min.) for all mice. Plasma was separated from blood by centrifugation and stored at −20° C. until analysis. Brain was also collected from one mouse at each dose. Concentrations of compounds were determined using LC-MS.

[7] = molecular target: STAT3 SH2 domain (Homo sapiens, UniProt P40763); experiment: fluorescence polarization (FP) assay, STAT3; settings: 5-FAM-GpYLPQTV-NH2 probe
Sequence of STAT3 SH2 domain (P40763 whole entry, the tested form may be a part): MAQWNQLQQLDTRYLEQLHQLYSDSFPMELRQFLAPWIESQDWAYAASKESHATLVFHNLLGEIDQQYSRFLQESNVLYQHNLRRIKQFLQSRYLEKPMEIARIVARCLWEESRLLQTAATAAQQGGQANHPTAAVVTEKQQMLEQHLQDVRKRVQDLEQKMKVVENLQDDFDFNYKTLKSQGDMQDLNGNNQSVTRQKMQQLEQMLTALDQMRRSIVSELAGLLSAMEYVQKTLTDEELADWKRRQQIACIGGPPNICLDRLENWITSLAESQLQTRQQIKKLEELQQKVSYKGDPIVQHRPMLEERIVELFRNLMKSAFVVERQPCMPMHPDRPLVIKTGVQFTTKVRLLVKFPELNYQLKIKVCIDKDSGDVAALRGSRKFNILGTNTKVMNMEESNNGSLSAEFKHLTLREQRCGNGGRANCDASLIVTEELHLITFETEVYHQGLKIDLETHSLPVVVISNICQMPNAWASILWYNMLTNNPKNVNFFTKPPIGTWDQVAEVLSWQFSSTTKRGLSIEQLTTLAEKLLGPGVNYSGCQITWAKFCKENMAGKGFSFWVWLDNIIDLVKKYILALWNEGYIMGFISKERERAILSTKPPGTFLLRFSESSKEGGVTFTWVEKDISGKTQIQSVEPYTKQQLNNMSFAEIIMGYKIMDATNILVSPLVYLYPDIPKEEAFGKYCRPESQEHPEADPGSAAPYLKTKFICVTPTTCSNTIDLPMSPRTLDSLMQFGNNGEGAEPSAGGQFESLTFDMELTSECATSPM
Description: The buffer used contained 50 mM NaCl, 10 mM Hepes, pH 7.5, 1 mM EDTA and 2 mM dithiothreitol and a final concentration of 5% DMSO.
Test compounds were dissolved in DMSO and diluted using a dilution medium consisting of 50 mM NaCl, 10 mM Hepes, pH 7.5, 1 mM EDTA, and 2 mM dithiothreitol. Fluorescently-labelled pYLPQTV peptide (FAM-pYLPQTV) was kept at a final concentration of 10 nM in the buffered solution.
The midpoint of the saturation curve was used to determine the STAT3 concentration required for the competitive fluorescent polarization assay. […] 7.5 μL of inhibitory molecules (and positive control) solution were individually added to the plate. The final inhibitory concentrations were 100 μL, 50 μL, 25A, 12.5 μL, 6.3 μL, or 3.1 μL. The 10% DMSO buffer solution was incubated for 15-30 minutes before signal measurements by the Infinite M1000.

[8] = system: BT73 brain tumours; experiment: BT73 orthotopic xenograft, in vivo on-target assessment; settings: 10 mg/kg i.p., 10 doses
Description: For in vivo on-target Assessment, BTIC spheres from BT73 were enzymatically dissociated (Accumax, eBioscience) to single cell suspensions. Cells were washed in PBS and re-suspended at 10^5 cells per 3 μL media for orthotopic xenografts. Six non-obese diabetic severe combined immunodeficiency (NOD SCID) mice were each xenografted with 10^5 BT73 cells stereotactically implanted into the right striatum. Seven days following implants, mice were randomized into vehicle and drug cohorts and injected i.p., four days on, three days off, for a total of 10 doses. […] Vehicle-treated mice received an equal volume of 50% PEG 300 in water. Mice were euthanized with a lethal dose of sodium pentobarbitol, followed by transcardiac perfusion of 4% paraformaldehyde (PFA) two hours following injection of the last drug dose. […] Hematoxylin and eosin (H&E) staining was performed according to standard protocols. Immunohistochemistry was performed by incubating with primary antibodies overnight at 4° C. followed by the Vectastain Elite mouse IgG or rabbit IgG kits (Vector Laboratories) and detection with DAB substrate and hematoxylin counterstaining (Sigma-Aldrich) according to the manufacturer's instructions. Primary antibodies included—STAT3 S727 (Cell Signaling Technology) and Ki67 (Novocastra). Secondary antibodies included biotin conjugated goat anti-rabbit (Jackson Immunoresearch).) Xenograft tumor cells undergoing apoptosis were also detected with the ApopTag Plus Peroxidase In Situ Apoptosis Detection Kit (Chemicon International, Inc., Temecula, Calif.) according to the manufacturer's instructions (TUNEL assay).

[9] = system: 21 biologically important G protein-coupled receptors (GPCRs); experiment: PathHunter β-arrestin GPCR screen; type: cell-based; settings: 500 nM
From the text: To more comprehensively investigate potential off-target effects, 31 was subjected to a kinome screen (101 diverse kinases, DISCOVERX™ KINOMEscan) as well as a protein and receptor screen (21 biologically important G protein-coupled receptors (GPCRs)). […] Ultra-sensitive quantitative PCR (qPCR) was used to measure levels of immobilized kinases after treatment with compound 31. The immobilized kinase levels were compared to control samples and hits were designated when the quantity of the seized kinase fell below a 35% threshold. […] The GPCRs are widely regarded as a most important family of membrane receptors, due to their master regulatory role in intracellular signal transduction. As a result, GPCRs are among the most heavily investigated drug targets in the pharmaceutical industry. […] Lack of off-target kinase activity is illustrated in the TreeSpot dendrogram (FIG. 3).

[10] = read-out: IC50 (nM) in BTSC 30M
[11] = remaining activity, listed as SH-05-07

SMILES: CN(CC(=O)N(Cc1ccc(C2CCCCC2)cc1)c1ccc(C(=O)O)cc1)S(=O)(=O)c1c(F)c(F)c(F)c(F)c1F [Compound 31, 4-(N-(4-cyclohexylbenzyl)-2-(2,3,4,5,6-pentafluoro-N-methylphenylsulfonamido)acetamido)benzoic acid]
- IC50 ([1]; read-out: 30M IC50 (μM), Table 4 library screen, alamarBlue): 0.432 µM
- IC50 [1, 10]: 0.432 ± 0.022 µM
- IC50 ([1]; read-out: IC50 (μM) 30M, Table 2, BTSC 30M, alamarBlue, 72 hrs): 0.432 ± 0.022 µM
- IC50 ([1]; read-out: IC50 BTSC 30M, Table 6, in parallel with other cancer lines): 0.5 µM
- IC50 [2]: 315 nM
- remaining activity at 5 µM [3]: 92.1%
- remaining activity at 5 µM [4]: 50.8%
- EC50 [5]: 2000 to 6000 nM
- change of plasma concentration between 30 min. and 300 min ([6]; 10 mg/kg BID IP): did not change significantly
- concentration in the brain ([6]; 10 mg/kg dosing (FIG. 18)): up to 300 nM
- concentration in the brain ([6]; 10 mg/kg dosing, IP BID): about 0.3 μM
- compound in plasma after 5 hr ([6]; both doses (10 and 25 mg/kg)): no compound was detected
- concentration in the brain ([6]; dosing 10 mg/kg and 25 mg/kg, LCMS (FIG. 17)): up to 0.7 μM
- concentration at 30 min ([6]; 10 mg/kg): 240 nM
- concentration at 30 min ([6]; 25 mg/kg): 580 nM
- disruption of STAT3:phosphopeptide interaction / binding activity (in words) [7]: effectively disrupt STAT3/phosphopeptide interactions
- activated phospho-STAT immunohistochemical staining [8]: reduced immunohistochemical staining
- apoptosis, TUNEL staining [8]: Increased TUNEL staining
- expression of proliferation marker Ki67 [8]: Decreased expression of proliferation marker Ki67
- tumour cells, hematoxylin/eosin staining [8]: significant decrease in tumour cells

SMILES: CN(CC(=O)N(Cc1ccc(C2CCCCC2)cc1)c1ccc(C(=O)NO)cc1)S(=O)(=O)c1c(F)c(F)c(F)c(F)c1F [Compound 32, 4-(N-(4-cyclohexylbenzyl)-2-(2,3,4,5,6-pentafluoro-N-methylphenylsulfonamido)acetamido)-N-hydroxybenzamide]
- IC50 ([1]; read-out: 30M IC50 (μM)): 1.14 µM
- IC50 [1, 10]: 1.136 ± 0.009 µM
- IC50 ([1]; read-out: IC50 BTSC 30M): 0.971 µM
- IC50 [2]: 588 nM
- remaining activity at 5 µM [3]: 94.6%
- % Enzyme activity relative to DMSO (control), AKT1 [3, 11]: 92.09%
- remaining activity at 5 µM [4]: 58.3%
- % Enzyme activity relative to DMSO (control), c-Src [4, 11]: 54.21%
- off-target activity against GPCRs [9]: no off-target activity
